The source made the active and inactive calls. No cut-off for these calls is given here.

Assay type in all cases: functional
Assay [1] is filed under the species Rattus norvegicus. The experiment in a line: Compound was tested for maximal contraction of rat thoracic aorta.
Assay [2] is filed under the species Rattus norvegicus. The experiment in a line: Effect of compound on rat thoracic aorta constriction in rat.
The species entered for assay [3] is Rattus norvegicus. The experiment in a line: Effect of compound on rat thoracic aorta constriction in rat at 10e-5 M concentration; No effect.

The term Emax denotes the size of the effect at its maximum, as opposed to the concentration needed. `CCCCC[C@H](O)/C=C/[C@H]1C2CC(CO2)[C@@H]1C/C=C\CCCC(=O)O` (some centres undefined) gave an Emax in the assay filed under Rattus norvegicus [1] of 189%. Moreover, the pD2 in the assay listed under Rattus norvegicus [2] is recorded as 7.8. For `CCCCC/C=C\C[C@@H]1[C@H](/C=C/[C@@H](O)CCCC(=O)OC)[C@@H](O)C[C@H]1O`, the pD2 result in the assay listed under Rattus norvegicus [3] was “inactive”.

For `CCCCC/C=C\C[C@@H]1[C@H](/C=C/[C@H](O)CCCC(=O)OC)[C@@H](O)C[C@H]1O`, the pD2 result in the assay listed under Rattus norvegicus [3] was “inactive”.

(Values after ChEMBL document CHEMBL1133959, “Syntheses and preliminary pharmacological evaluation of the two epimers of the 5-F2t-isoprostane” (2001).)
